Laboratory results from ChEMBL document CHEMBL5214936, “Synthesis and evaluation of glycosylated quercetin to enhance neuroprotective effects on cerebral ischemia-reperfusion” (Bioorg Med Chem, 2022).
Activity calls are given as the source filed them. The calls are words filed in the database; no cut-off is given here.

Key:
PC-12 [1] = assay: Neuroprotective activity against H2O2-induced cytotoxicity in rat PC12 cells assessed as increase in cell viability at 2.5 to 100 uM preincubated for 2 hrs followed by H2O2 stimulation and measured after 2 hrs by MTT assay; type: functional, cell-based; details: dose 2.5-100 µM
Rattus norvegicus [2] = assay: Neuroprotective activity against middle cerebral artery occlusion induced cerebral ischemia reperfusion rat model assessed decrease in morphological changes in brain at 10 mg/kg, ip preincubated for 0.5 hrs followed by reperfusion and measured after 24 hrs by hematoxylin and eosin staining based microscopy; type: functional, organism-based
Rattus norvegicus [3] = assay: Neuroprotective activity against middle cerebral artery occlusion induced cerebral ischemia reperfusion rat model assessed as increase in brain GSH level at 10 mg/kg, ip preincubated for 0.5 hrs followed by reperfusion and measured after 24 hrs; type: functional, organism-based
PC-12 [4] = assay: Neuroprotective activity in rat PC12 cells assessed as reduction in H2O2-induced ROS generation at 20 to 100 uM preincubated for 2 hrs followed by H2O2 stimulation and measured after 2 hrs by DCFH-DA staining based fluorescence microscopic analysis; type: functional, cell-based; details: dose 20-100 µM
[5] = Stability of compound in phosphate buffer assessed as parent compound remaining after 48 hrs by HPLC analysis; type: physicochemical; details: read-out: Stability
Rattus norvegicus [6] = assay: Neuroprotective activity against middle cerebral artery occlusion induced cerebral ischemia reperfusion rat model assessed as decrease in brain SOD level at 10 mg/kg, ip preincubated for 0.5 hrs followed by reperfusion and measured after 24 hrs; type: functional, organism-based
[7] = n-Octanol-water partition coefficient, logP of the compound at 1 mg and measured after 2 hrs by HPLC analysis; type: physicochemical
Rattus norvegicus [8] = assay: Neuroprotective activity against middle cerebral artery occlusion induced cerebral ischemia reperfusion rat model assessed as decrease in brain MDA level at 10 mg/kg, ip preincubated for 0.5 hrs followed by reperfusion and measured after 24 hrs; type: functional, organism-based
Rattus norvegicus [9] = assay: Neuroprotective activity against middle cerebral artery occlusion induced cerebral ischemia reperfusion rat model assessed decrease in neuronal loss in brain at 10 mg/kg, ip preincubated for 0.5 hrs followed by reperfusion and measured after 24 hrs by hematoxylin and eosin staining based microscopy; type: functional, organism-based
Rattus norvegicus [10] = assay: Neuroprotective activity against middle cerebral artery occlusion induced cerebral ischemia reperfusion rat model assessed infarct volume volume at 10 mg/kg, ip preincubated for 0.5 hrs followed by reperfusion and measured after 24 hrs by TTC staining based assay relative to control; type: functional, organism-based
[11] = Cytotoxicity against mouse BEND3 cells assessed as inhibition of cell viability at 20 to 50 uM incubated for 24 hrs by MTT assay; type: toxicity, cell-based; details: bend3, 24 h, dose 20-50 µM
PC-12 [12] = assay: Antioxidant activity in rat PC12 cells assessed as reduction in H2O2-induced ROS level at 20 to 100 uM preincubated for 2 hrs followed by H2O2 stimulation and measured after 2 hrs by DCFH-DA staining based fow cytometry; type: functional; design: scale not given: the % may be the effect or the level left; details: dose 20-100 µM
PC-12 [13] = assay: Cytotoxicity against rat PC-12 cells assessed as inhibition of cell viability at 20 to 50 uM incubated for 24 hrs by MTT assay; type: toxicity, cell-based; details: pc-12, 24 h, dose 20-50 µM
PC-12 [14] = assay: Cytotoxicity against rat PC-12 cells assessed as inhibition of cell viability at 2.5 to 50 uM incubated for 24 hrs by MTT assay; type: toxicity, cell-based; details: pc-12, 24 h, dose 2.5-50 µM
[15] = Cytotoxicity against mouse BEND3 cells assessed as inhibition of cell viability at 2.5 to 50 uM incubated for 24 hrs by MTT assay; type: toxicity, cell-based; details: dose 2.5-50 µM, read-out: Activity

O=c1c(O)c(-c2ccc(O)c(O)c2)oc2cc(O)cc(O)c12 [QUERCETIN]
Activity (PC-12 [1]): Active
Activity (Rattus norvegicus [2]): Active
Activity (Rattus norvegicus [3]): Active
Activity (PC-12 [4]): Active
remaining at 48 h [5]: 11.2%
Activity (Rattus norvegicus [6]): Active
logP at 2 h [7]: 1.38
Activity (Rattus norvegicus [8]): Active
Activity (Rattus norvegicus [9]): Active
Activity (Rattus norvegicus [10]): Active
Activity [11]: Toxic
Activity (PC-12 [12]): 21.56%
Activity (PC-12 [13]): Toxic

O=c1c(O)c(-c2ccc(O)c(OCc3cn(C[C@H]4O[C@@H](O)[C@H](O)[C@@H](O)[C@@H]4O)nn3)c2)oc2cc(OCc3cn(C[C@H]4O[C@@H](O)[C@H](O)[C@@H](O)[C@@H]4O)nn3)cc(O)c12
Activity (PC-12 [1]): Active
Activity (PC-12 [14]): > 80%
Activity (Rattus norvegicus [2]): Active
inhibition at 24 h, up to 50 µM [15]: > 80%
Activity (Rattus norvegicus [3]): Active
Activity (PC-12 [4]): Active
remaining at 48 h [5]: 81.5%
Activity (Rattus norvegicus [6]): Active
logP at 2 h [7]: -1.12
Activity (Rattus norvegicus [8]): Active
Activity (Rattus norvegicus [9]): Active
Activity (Rattus norvegicus [10]): Active
Activity (PC-12 [12]): 5.06%

O=c1c(O)c(-c2ccc(O)c(O)c2)oc2cc(OCc3cn(C[C@H]4O[C@@H](O)[C@H](O)[C@@H](O)[C@@H]4O)nn3)cc(O)c12
Activity (PC-12 [1]): Active
Activity (PC-12 [14]): > 80%
Activity (Rattus norvegicus [2]): Active
inhibition at 24 h, up to 50 µM [15]: > 80%
Activity (Rattus norvegicus [3]): Active
Activity (PC-12 [4]): Active
remaining at 48 h [5]: 73.2%
Activity (Rattus norvegicus [6]): Active
logP at 2 h [7]: -0.23
Activity (Rattus norvegicus [8]): Active
Activity (Rattus norvegicus [9]): Active
Activity (Rattus norvegicus [10]): Active
Activity (PC-12 [12]): 15.2%
